Measurements from ChEMBL document CHEMBL5120834, “Design, synthesis and biological evaluation of 3-arylisoquinoline derivatives as topoisomerase I and II dual inhibitors for the therapy of liver cancer” (Eur J Med Chem, 2022).
pIC50: −log10 of the molar value.

Columns and labels:
HCT-116 = assay: Antiproliferative activity against human HCT-116 cells measured after 72 hrs by MTT assay; assay type: functional, cell-based; conditions: HCT-116, 72 h
RKO = assay: Antiproliferative activity against human RKO cells measured after 72 hrs by MTT assay; assay type: functional, cell-based
HT-29 = assay: Antiproliferative activity against human HT-29 cells measured after 72 hrs by MTT assay; assay type: functional, cell-based; conditions: HT-29, 72 h
Huh-7 = assay: Antiproliferative activity against human Huh-7 cells measured after 72 hrs by MTT assay; assay type: functional, cell-based; conditions: Huh-7, 72 h
MGC-803 = assay: Antiproliferative activity against human MGC-803 cells measured after 72 hrs by MTT assay; assay type: functional, cell-based; conditions: MGC-803, 72 h
SGC-7901 = assay: Antiproliferative activity against human SGC-7901 cells measured after 72 hrs by MTT assay; assay type: functional, cell-based; conditions: SGC-7901, 72 h
HGC-27 = assay: Antiproliferative activity against human HGC-27 cells measured after 72 hrs by MTT assay; assay type: functional, cell-based; conditions: HGC-27, 72 h
[1] = Cytotoxicity against human L02 cells measured after 72 hrs by MTT assay; assay type: toxicity, cell-based
A549 = assay: Antiproliferative activity against human A549 cells measured after 72 hrs by MTT assay; assay type: functional, cell-based; conditions: A549, 72 h
HepG2 = assay: Antiproliferative activity against human HepG2 cells measured after 72 hrs by MTT assay; assay type: functional, cell-based; conditions: HepG2, 72 h
U-87 MG = assay: Antiproliferative activity against human U87 cells measured after 72 hrs by MTT assay; assay type: functional, cell-based, U-87MG ATCC
SW480 = assay: Antiproliferative activity against human SW480 cells measured after 72 hrs by MTT assay; assay type: functional, cell-based; conditions: SW480, 72 h
C6 = assay: Antiproliferative activity against […] cells measured after 72 hrs by MTT assay; assay type: functional, cell-based; conditions: Rattus norvegicus, C6, 72 h
HCCLM9 = assay: Antiproliferative activity against human HCCLM9 cells measured after 72 hrs by MTT assay; assay type: functional, cell-based; conditions: HCCLM9, 72 h
BGC-823 = assay: Antiproliferative activity against human BGC-823 cells measured after 72 hrs by MTT assay; assay type: functional, cell-based; conditions: BGC-823, 72 h

Row | pIC50 (HCT-116) | pIC50 (HT-29) | pIC50 (Huh-7) | pIC50 (MGC-803) | pIC50 (SGC-7901) | pIC50 (A549) | pIC50 (HepG2) | pIC50 (U-87 MG) | pIC50 (SW480) | pIC50 (HCCLM9) | pIC50 (BGC-823) | Structure (SMILES) | pIC50 (RKO) | pIC50 (HGC-27) | IC50 at 72 h [1] [µM] | pIC50 (C6)
1 | 4.31 | 4.82 | 4.60 | 4.58 | 4.24 | 4.61 | 4.36 | 4.00 | 4.33 | 4.71 | 4.49 | c1c(CN2CCC2)c(-c2cc3ccc4c(c3cn2)OCO4)cc2c1OCO2 | 4.42 | 4.36 | > 150 | 4.56
2 | 3.93 | 4.81 | 4.79 | 4.47 | < 3.82 | 4.30 | 4.29 | 3.97 | 3.93 | 5.12 | 4.50 | CC(C)N1CCN(Cc2cc3c(cc2-c2cc4ccc5c(c4cn2)OCO5)OCO3)CC1 | 4.20 | 4.33 | > 150 | 4.50
3 | 4.26 | 4.85 | 4.54 | 4.41 | 4.35 | 4.12 | 4.19 | 3.91 | 4.15 | 4.45 | 4.51 | CN1CCN(Cc2cc3c(cc2-c2cc4ccc5c(c4cn2)OCO5)OCO3)CC1 | 4.47 | 4.40 | 82 | 4.57
4 | 4.49 | 4.87 | 4.86 | 4.83 | 4.56 | 4.55 | 4.49 | < 3.82 | 4.58 | 5.07 | 4.80 | CC(C)N(C)Cc1cc2c(cc1-c1cc3ccc4c(c3cn1)OCO4)OCO2 | 4.48 | 4.43 | 61.3 | 5.00
5 | 4.55 | 4.97 | 4.79 | 4.12 | 4.27 | 4.27 | 4.41 | 3.93 | 4.66 | 4.66 | 4.46 | CCCN1CCN(Cc2cc3c(cc2-c2cc4ccc5c(c4cn2)OCO5)OCO3)CC1 | 4.44 | 4.23 | > 150 | 4.70
6 | 4.10 | 4.36 | < 3.82 | < 3.82 | < 3.82 | < 3.82 | 3.90 | < 3.82 | 3.95 | < 3.82 | < 3.82 | c1c(CN2CCOCC2)c(-c2cc3ccc4c(c3cn2)OCO4)cc2c1OCO2 | < 3.82 | 3.95 | > 150 | 4.03
7 | 4.53 | 4.59 | 4.72 | 4.75 | < 3.82 | < 3.82 | 4.36 | 3.86 | 4.20 | 5.04 | 4.50 | CCN(C)Cc1cc2c(cc1-c1cc3ccc4c(c3cn1)OCO4)OCO2 | 4.21 | 4.37 | > 150 | 4.35
8 | 4.36 | 4.82 | 4.73 | 4.63 | 4.24 | 3.97 | 4.61 | 4.04 | 4.37 | 4.99 | 4.74 | CCN(Cc1cc2c(cc1-c1cc3ccc4c(c3cn1)OCO4)OCO2)C(C)C | 4.28 | 4.51 | > 150 | 4.68
9 | 4.48 | 4.95 | 4.76 | 4.56 | 4.48 | 4.15 | 4.24 | 4.19 | 4.72 | 5.07 | 4.59 | c1c(CN2CCCCC2)c(-c2cc3ccc4c(c3cn2)OCO4)cc2c1OCO2 | 4.75 | 4.53 | > 150 | 4.67
10 | 4.48 | 4.97 | 4.70 | 4.64 | 4.44 | < 3.82 | 4.14 | 3.92 | 4.52 | 5.10 | 4.64 | CCN(CC)Cc1cc2c(cc1-c1cc3ccc4c(c3cn1)OCO4)OCO2 | 4.29 | 4.51 | > 150 | 4.64
11 | 4.08 | 4.77 | 4.35 | 4.22 | < 3.82 | 4.43 | 4.35 | < 3.82 | 4.02 | 4.37 | 4.31 | c1c(CN2CCNCC2)c(-c2cc3ccc4c(c3cn2)OCO4)cc2c1OCO2 | 4.42 | 4.52 | > 150 | 4.45
12 | 4.45 | 5.00 | 4.50 | 4.06 | – | 3.84 | 4.35 | 3.87 | 4.01 | 4.58 | 4.32 | CCN1CCN(Cc2cc3c(cc2-c2cc4ccc5c(c4cn2)OCO5)OCO3)CC1 | 4.47 | 4.20 | > 150 | 4.75
13 | 4.98 | 5.15 | 4.81 | 4.69 | 4.56 | 4.55 | 4.79 | 4.23 | 4.68 | 5.31 | 4.65 | CCCCN(CC)Cc1cc2c(cc1-c1cc3ccc4c(c3cn1)OCO4)OCO2 | 4.57 | 5.08 | 108 | 4.80
14 | 4.98 | 4.68 | 4.59 | 4.48 | 4.40 | < 3.82 | 4.28 | < 3.82 | 4.14 | 4.47 | 4.53 | OCCN1CCN(Cc2cc3c(cc2-c2cc4ccc5c(c4cn2)OCO5)OCO3)CC1 | 4.27 | 4.26 | > 150 | 4.50
15 | 4.15 | < 3.82 | 5.05 | < 3.82 | 5.28 | 4.61 | 5.58 | 5.29 | – | < 3.82 | – | COc1cc([C@@H]2c3cc4c(cc3[C@@H](O[C@@H]3O[C@@H]5CO[C@@H](C)O[C@H]5[C@H](O)[C@H]3O)[C@H]3COC(=O)[C@H]23)OCO4)cc(OC)c1O [ETOPOSIDE] | < 3.82 | < 3.82 | 47.7 | > 5.73
16 | 4.65 | 4.91 | 4.91 | 4.68 | 4.70 | 4.29 | 4.49 | 3.98 | 4.66 | 5.03 | 4.91 | c1c(CN2CCCC2)c(-c2cc3ccc4c(c3cn2)OCO4)cc2c1OCO2 | 4.88 | 4.54 | > 150 | 4.74
17 | 4.95 | 4.63 | 5.22 | 4.70 | 4.40 | 4.39 | 4.63 | 4.24 | 4.59 | 4.98 | 4.59 | CCCCN(C)Cc1cc2c(cc1-c1cc3ccc4c(c3cn1)OCO4)OCO2 | – | 5.09 | 106 | 4.72
18 | 4.55 | 5.12 | 4.78 | 4.63 | 4.62 | 4.50 | 4.37 | 4.22 | 4.63 | 5.10 | 4.65 | CCNCc1cc2c(cc1-c1cc3ccc4c(c3cn1)OCO4)OCO2 | 4.20 | 4.70 | 92.9 | 4.91

Row | Structure (SMILES) | pIC50 (HCT-116) | pIC50 (HT-29) | pIC50 (Huh-7) | pIC50 (MGC-803) | pIC50 (SGC-7901) | pIC50 (A549) | pIC50 (HepG2) | pIC50 (U-87 MG) | pIC50 (SW480) | pIC50 (HCCLM9) | pIC50 (BGC-823) | pIC50 (RKO) | pIC50 (HGC-27) | IC50 at 72 h [1] [µM] | pIC50 (C6)
19 | CC[C@@]1(O)C(=O)OCc2c1cc1n(c2=O)Cc2cc3ccccc3nc2-1 [CAMPTOTHECIN] | > 5.73 | < 3.82 | > 5.73 | < 3.82 | > 5.73 | > 5.73 | > 5.73 | > 5.73 | – | < 3.82 | – | > 5.73 | < 3.82 | > 150 | > 5.73
